Results published in US8106004B2, “Methods of inhibiting tumor cell aggressiveness using the microenvironment of human embryonic stem cells” (Children's Memorial Hospital, priority 2006, dated 2012).

Tests used:
Type in all cases: cell-based, human
[1] = system: C8161 cells; experiment: MICS (Membrane Invasion Culture System) invasion assay; conditions: C8161, ALK 4/5/7 inhibitor
Protocol: (A) Invasion of C8161 cells following culture on unconditioned Matrigel (Control) or Matrigel preconditioned by either H1 or HSF-6 hESCs was calculated as a percentage of cells able to invade through a defined matrix (collagen IV, laminin, and gelatin)-coated membrane during a 24 hour period using the MICS (Membrane Invasion Culture System) assay. Bars represent the mean, normalized, invasion indices±standard deviations. […] (B) In vivo tumor formation in a mouse injected with C8161 cells pre-exposed for 3 days to either a control matrix (Matrigel) or a matrix conditioned by hESCs (H9 CMTX) (n=21).
The aggressiveness of tumor cells is correlated with their ability to invade through the extracellular matrix; thus, the effect of hESC microenvironments on melanoma cell invasion was investigated.
The derivation and phenotypic characteristics of the human melanoma cell lines have been previously described. Seftor, et. al., 2002, Clin. Experim. Metastas. 19:233-246; Seftor, et. al., 2005 Cancer Res. 65:10164-10169. […] The cultures are determined to be free of mycoplasma contamination using a PCR-based assay (Roche). […]

[2] = system: Nodal; experiment: Nodal expression in C8161 cells (Western blot, real time RT-PCR); conditions: C8161, ALK 4/5/7 inhibitor 1 μM, 10 μM
Protocol: A determination of the effects of H9 CMTX on Nodal expression in metastatic melanoma (C8161) and breast carcinoma (MDA-MB-231) cells was undertaken. […] Exposure to H9 CMTX similarly abrogates Nodal mRNA expression in the melanoma and breast carcinoma cells (FIG. 9C).
Protein lysates were prepared and quantified as previously described in Hess et al., 2001, Cancer Res. 61:3250-3255. Equal amounts of protein were separated by SDS-polyacrylamide gel electrophoresis under reducing conditions, and the resolved proteins were transferred onto Immobilon-P membranes (Millipore Corp., Bedford, Mass.). Membranes were blocked in 1% TBS, 0.1% Tween 20 (TBS-T) and 5% dry milk powder or 3% gelatin (for Nodal Westerns). Blots were incubated with anti-Nodal or anti-Lefty antibodies (Polyclonal rabbit anti-Nodal (H-110) 1:500 Santa Cruz Biotechnology, Santa Cruz, Calif.; Polyclonal goat anti-Lefty 1:500 R&D Systems, Minneapolis, Minn.), washed in TBS-T, and incubated with the appropriate horseradish peroxidase-labeled secondary antibody. Secondary antibodies were detected by enhanced chemiluminescence (Super Signal; Pierce, Rockford, Ill.) and exposure to autoradiography film (Molecular Technologies, St Louis, Mo.). Nodal protein was detected as two major bands at ˜48 and ˜35 kDa representing precursor and pro-Nodal respectively. Nodal often appeared as multiple bands, likely due to degradation of protein modifications. All experiments were done at least three times.
The derivation and phenotypic characteristics of the human melanoma cell lines have been previously described. Seftor, et. al., 2002, Clin. Experim. Metastas. 19:233-246; Seftor, et. al., 2005 Cancer Res. 65:10164-10169. The melanoma cell lines are maintained in RPMI 1640 medium (Invitrogen) supplemented with 10% fetal bovine serum (FBS, Gemini Bioproducts) and 0.1% gentamycin sulfate with the exception of C81-61 cells which are maintained in Ham's FIO medium supplemented with 15% FBS, 1X Mito+ (BD Bioscience) and gentamycin sulfate. […] The cultures are determined to be free of mycoplasma contamination using a PCR-based assay (Roche). […]

[3] = system: C8161 cells; experiment: Vasculogenic mimicry and plasticity biomarkers in C8161 cells with ALK 4/5/7 inhibitor; conditions: C8161, ALK 4/5/7 inhibitor
Protocol: (A) Western blot analyses of Nodal, phosphorylated SMAD-2, total SMAD 2/3, and Actin in C8161 cells 48 hours after administration of either vehicle or an ALK 4/5/7 inhibitor (SB431542, 1 μM, 10 μM). […] (B) Western blot analyses of Nodal, Tyrosinase and Actin in C8161 cells 24 hours after the administration of either vehicle or different concentrations of ALK inhibitor while (C) is a Western analyses for VE-Cadherin, Keratin 18 and Actin in C8161 cells cultured on 3-D collagen I matrices for 6 days in the presence of vehicle or different concentrations of ALK inhibitor.

[4] = system: Notch; experiment: Western blot analysis of Notch 1, 2 and 4 in C8161 cells; conditions: C8161 treated with Nodal inhibitor
Excerpt: Western blot analysis of C8161 cells 72 hrs following the administration of siRNA. […] Western blot analysis of Notch 1, 2 and 4 in C8161 cells treated with the Nodal inhibitor SB431542.

Q: How did the invasive ability [1] turn out when `NC(=O)c1ccc(-c2nc(-c3ccc4c(c3)OCO4)c(-c3ccccn3)[nH]2)cc1` [SB431542] was run?
A: Its invasive ability is “reduction in invasive ability”.

Q: What about the “Nodal expression (Western blot)” value [2] of the same compound?
A: Its value is “down-regulation of Nodal”.

Q: And the “expression of vasculogenic mimicry plasticity biomarkers (Western blot)” value [3]?
A: The value was “reduction”.

Q: And the vasculogenic mimicry [3]?
A: The vasculogenic mimicry was “abrogation of vasculogenic mimicry”.

Q: What about the “Notch expression (Western blot)” value [4] of the same compound?
A: Its value is “relatively unaffected”.
